These results are taken from patent US9676760B2, “Fused heterocyclic compounds as ion channel modulators” (Gilead Sciences, Inc., priority 2011, dated 2017).

Like-named read-outs stand apart in the source and are kept apart here.

The target in test [1] is T1, hNav 1.2 sodium channel isoform (Homo sapiens, UniProt Q99250).
T1 construct: expressed in transfected cells
As to the kind of experiment: hNav1.2 whole-cell voltage-clamp assay. Format: cell-based. The following applies: use-dependent block, 10 Hz, read-out: NAV1.2* UDB-10HZ. Here is the method: Wild-type (WT) cDNA stably transfected in Chinese hamster ovary (CHO) cells is used to record INa. Unless otherwise noted, all reagents are purchased from Sigma-Aldrich (St Louis, Mo., U.S.A.).
Whole-cell voltage-clamp recordings are used to measure the biophysical properties of WT. […] Cells are allowed to stabilize for 10 min after establishment of the whole-cell configuration before current is measured. Series resistance is compensated 90% to assure that the command potential is reached within microseconds with a voltage error<2 mV. Leak currents are subtracted by using an online P/4 procedure and all currents are low-pass Bessel filtered at 5 kHz and digitized at 50 kHz.
For clarity, representative ramp currents are low pass filtered off-line at 50 Hz. Specific voltage-clamp protocols assessing channel activation, fast inactivation and availability during repetitive stimulation are used. Results are presented as mean±SEM.
Tonic block of peak current is measured using a step to −10 mV (20 ms) from a holding potential of −120 mV (0.2 Hz). Use-dependent block of peak current is measured during pulse number 300 of a pulse train (−10 mV, 5 ms, 300 pulses, 10 Hz or 25 Hz) from a holding potential of −120 mV. Two sequential pulse train stimulations are averaged to obtain mean current traces for each recording condition, which are then used for offline subtraction and analysis.
For use-dependent studies, cells are stimulated with depolarizing pulse trains (−10 mV, 5 ms, 300 pulses, 10 and 25 Hz) from a holding potential of −120 mV. Currents are then normalized to the peak current recorded in response to the first pulse in each frequency train. For tonic block studies, peak current is evaluated in response to a 20 ms depolarization to −10 mV (0.2 Hz). […] Results are presented as mean±SEM.
A stock solution of 10 mM compound of Formula I is prepared in 0.1 M HCl or DMSO. […] The final DMSO concentration was kept at 0.1% in all solutions. Direct application of the perfusion solution to the clamped cell is achieved using the Perfusion Pencil system (Automate, Berkeley, Calif.). Direct cell perfusion is driven by gravity at a flow rate of 350 μL/min using a 250 micron tip. This system sequesters the clamped cell within a perfusion stream and enables complete solution exchange within 1 second. The clamped cell is perfused continuously starting immediately after establishing the whole-cell configuration. Control currents are measured during control solution perfusion.
Solutions are perfused for three minutes prior to current recordings to allow equilibrium (tonic) drug block. Tonic block of peak currents is measured from this steady-state condition. Three sequential current traces are averaged to obtain a mean current for each recording. The mean current traces are utilized for offline analysis. Use-dependent block of peak current is measured during pulse number 300 of the pulse train, (−10 mV, 5 ms, 300 pulses, 10 Hz) from a holding potential of −120 mV.

Test [2] has as its target wild-type human cardiac sodium channel, hNav1.5 (Homo sapiens, UniProt Q14524). Kind of test: Peak INa screening assay (tonic and use-dependent block). Format: cell-based. The following applies: for inhibition at 1 µM: compound at 1 μM. The method, boiled down: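 Whole-cell automated patch clamp (QPatch) at 23–25°C on HEK293 cells stably expressing hNav1.5 alpha subunit only, with CsF/CsCl pipette solution, pH 7.4. Compound at 1 μM in extracellular solution; bath Na+ could be cut to 20 mM with a nonpermeant cation. Tonic block measured at 0.1 Hz, use-dependent block at 3 Hz.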

The mark [3] stands for this setting: tonic block of peak INa, 0.1 Hz, read-out: Peak TB 1 μM.
Setting [4] is: use-dependent block of peak INa, 3 Hz, read-out: Peak UDB 1 μM.

T1 sequence (Q99250 whole entry, canonical isoform): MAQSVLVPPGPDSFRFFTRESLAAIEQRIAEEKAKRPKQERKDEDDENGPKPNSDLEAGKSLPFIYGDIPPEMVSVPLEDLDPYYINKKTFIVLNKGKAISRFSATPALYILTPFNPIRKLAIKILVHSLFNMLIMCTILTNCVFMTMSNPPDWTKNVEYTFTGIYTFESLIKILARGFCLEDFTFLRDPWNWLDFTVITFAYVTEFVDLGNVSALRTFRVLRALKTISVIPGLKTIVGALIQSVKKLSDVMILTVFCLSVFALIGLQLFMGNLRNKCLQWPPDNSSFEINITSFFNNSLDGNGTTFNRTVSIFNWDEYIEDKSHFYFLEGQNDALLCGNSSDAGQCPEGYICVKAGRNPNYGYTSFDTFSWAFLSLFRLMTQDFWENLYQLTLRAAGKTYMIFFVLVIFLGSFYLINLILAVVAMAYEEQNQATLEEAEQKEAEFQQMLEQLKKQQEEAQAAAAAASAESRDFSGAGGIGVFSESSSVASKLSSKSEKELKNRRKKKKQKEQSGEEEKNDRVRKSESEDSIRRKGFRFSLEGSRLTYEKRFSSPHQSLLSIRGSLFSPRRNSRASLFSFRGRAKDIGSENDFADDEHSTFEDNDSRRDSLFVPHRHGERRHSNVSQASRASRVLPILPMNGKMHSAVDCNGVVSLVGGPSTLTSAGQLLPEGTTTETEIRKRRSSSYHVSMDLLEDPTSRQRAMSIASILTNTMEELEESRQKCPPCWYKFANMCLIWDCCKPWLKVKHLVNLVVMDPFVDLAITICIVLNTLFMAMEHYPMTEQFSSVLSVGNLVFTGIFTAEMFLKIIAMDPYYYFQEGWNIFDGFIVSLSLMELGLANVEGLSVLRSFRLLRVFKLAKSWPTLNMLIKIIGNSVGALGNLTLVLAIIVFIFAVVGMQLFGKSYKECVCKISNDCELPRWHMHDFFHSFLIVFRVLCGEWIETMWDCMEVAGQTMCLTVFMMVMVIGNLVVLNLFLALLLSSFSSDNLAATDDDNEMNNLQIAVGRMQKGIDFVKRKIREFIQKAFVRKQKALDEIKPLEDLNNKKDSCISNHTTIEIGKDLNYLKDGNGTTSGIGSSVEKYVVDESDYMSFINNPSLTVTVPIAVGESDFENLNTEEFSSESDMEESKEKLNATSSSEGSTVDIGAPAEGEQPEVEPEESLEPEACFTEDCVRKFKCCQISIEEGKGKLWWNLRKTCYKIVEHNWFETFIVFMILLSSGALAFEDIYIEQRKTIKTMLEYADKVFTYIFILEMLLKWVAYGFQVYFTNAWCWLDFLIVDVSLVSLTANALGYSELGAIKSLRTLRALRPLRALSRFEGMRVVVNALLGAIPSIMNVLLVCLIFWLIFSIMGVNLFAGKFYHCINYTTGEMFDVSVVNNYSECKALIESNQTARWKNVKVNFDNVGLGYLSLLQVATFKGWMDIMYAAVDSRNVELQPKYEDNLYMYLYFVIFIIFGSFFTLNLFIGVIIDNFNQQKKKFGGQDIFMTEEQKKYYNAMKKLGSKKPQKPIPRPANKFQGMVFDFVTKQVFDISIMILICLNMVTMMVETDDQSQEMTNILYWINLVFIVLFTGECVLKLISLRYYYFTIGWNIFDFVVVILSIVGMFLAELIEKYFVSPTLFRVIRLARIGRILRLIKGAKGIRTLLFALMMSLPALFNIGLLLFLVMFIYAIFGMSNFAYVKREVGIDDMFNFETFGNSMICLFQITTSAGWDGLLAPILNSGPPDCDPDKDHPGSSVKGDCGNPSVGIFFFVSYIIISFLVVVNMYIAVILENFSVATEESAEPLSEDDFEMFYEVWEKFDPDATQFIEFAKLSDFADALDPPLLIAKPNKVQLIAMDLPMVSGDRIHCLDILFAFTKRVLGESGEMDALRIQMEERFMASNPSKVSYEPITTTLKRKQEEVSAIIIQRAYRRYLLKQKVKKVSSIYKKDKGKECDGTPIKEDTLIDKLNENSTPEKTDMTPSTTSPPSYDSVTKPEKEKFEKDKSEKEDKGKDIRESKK
wild-type human cardiac sodium channel, hNav1.5, sequence (Q14524 whole entry): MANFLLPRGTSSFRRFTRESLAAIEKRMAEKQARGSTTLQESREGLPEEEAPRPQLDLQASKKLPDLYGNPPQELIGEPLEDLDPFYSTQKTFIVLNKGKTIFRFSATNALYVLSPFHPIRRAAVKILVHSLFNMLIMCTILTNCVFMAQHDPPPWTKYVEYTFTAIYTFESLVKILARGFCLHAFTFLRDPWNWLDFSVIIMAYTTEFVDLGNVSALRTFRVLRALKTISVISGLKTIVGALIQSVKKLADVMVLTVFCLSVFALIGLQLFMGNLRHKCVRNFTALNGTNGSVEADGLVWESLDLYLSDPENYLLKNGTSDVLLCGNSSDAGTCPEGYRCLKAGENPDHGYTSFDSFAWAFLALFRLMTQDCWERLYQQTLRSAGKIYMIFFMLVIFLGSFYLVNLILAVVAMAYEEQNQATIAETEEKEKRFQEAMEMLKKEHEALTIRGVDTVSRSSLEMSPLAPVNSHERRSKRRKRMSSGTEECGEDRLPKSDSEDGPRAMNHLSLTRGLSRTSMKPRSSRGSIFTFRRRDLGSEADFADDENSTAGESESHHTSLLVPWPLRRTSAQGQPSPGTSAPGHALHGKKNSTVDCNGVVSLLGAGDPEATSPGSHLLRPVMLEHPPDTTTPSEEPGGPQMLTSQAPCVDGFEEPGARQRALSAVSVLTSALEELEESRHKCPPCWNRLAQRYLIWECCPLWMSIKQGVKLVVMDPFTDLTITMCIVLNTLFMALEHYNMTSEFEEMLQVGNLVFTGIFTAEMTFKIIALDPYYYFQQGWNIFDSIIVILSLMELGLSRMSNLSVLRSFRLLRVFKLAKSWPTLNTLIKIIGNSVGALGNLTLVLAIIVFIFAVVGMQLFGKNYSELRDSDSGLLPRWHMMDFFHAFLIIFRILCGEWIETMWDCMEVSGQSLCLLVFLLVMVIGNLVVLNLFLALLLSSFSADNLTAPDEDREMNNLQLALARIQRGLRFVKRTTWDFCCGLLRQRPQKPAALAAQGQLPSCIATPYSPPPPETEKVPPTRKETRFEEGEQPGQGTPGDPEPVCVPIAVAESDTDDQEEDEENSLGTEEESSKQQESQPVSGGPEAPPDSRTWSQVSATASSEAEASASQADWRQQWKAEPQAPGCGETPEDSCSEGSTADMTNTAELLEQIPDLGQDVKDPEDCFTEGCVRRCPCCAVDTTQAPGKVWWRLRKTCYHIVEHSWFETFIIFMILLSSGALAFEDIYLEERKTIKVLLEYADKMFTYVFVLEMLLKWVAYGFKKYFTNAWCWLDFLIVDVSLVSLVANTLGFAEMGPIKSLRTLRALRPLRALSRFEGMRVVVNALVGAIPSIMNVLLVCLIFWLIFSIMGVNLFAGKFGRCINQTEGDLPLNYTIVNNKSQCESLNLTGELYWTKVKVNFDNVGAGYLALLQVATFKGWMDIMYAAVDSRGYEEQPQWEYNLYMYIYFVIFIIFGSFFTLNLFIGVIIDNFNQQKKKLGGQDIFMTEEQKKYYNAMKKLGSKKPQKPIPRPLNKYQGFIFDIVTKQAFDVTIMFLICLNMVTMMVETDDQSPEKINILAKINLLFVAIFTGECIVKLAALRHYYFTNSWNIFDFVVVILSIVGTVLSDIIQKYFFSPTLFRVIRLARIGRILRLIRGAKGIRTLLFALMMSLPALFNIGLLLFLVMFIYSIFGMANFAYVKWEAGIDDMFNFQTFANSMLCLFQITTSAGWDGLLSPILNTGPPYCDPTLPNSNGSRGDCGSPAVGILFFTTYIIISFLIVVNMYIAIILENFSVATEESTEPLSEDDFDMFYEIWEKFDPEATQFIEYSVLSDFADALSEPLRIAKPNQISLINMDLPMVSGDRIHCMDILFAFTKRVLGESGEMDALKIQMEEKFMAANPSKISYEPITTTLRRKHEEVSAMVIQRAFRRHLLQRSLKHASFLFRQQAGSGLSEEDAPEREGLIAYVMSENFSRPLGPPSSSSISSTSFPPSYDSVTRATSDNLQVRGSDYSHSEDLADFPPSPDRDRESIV

Consider `O=C1CN(Cc2ccccc2)C(=O)c2cc(-c3ccc(C(F)(F)F)cc3)ccc2N1` [Compound X-8, 4-benzyl-7-(4-(trifluoromethyl)phenyl)-3,4-dihydro-1H-benzo[e][1,4]diazepine-2,5-dione], for which the values for the inhibition at 1 µM in test [1], in test [2] (setting [3]) and in test [2] (setting [4]) were -14%, 6% and 10%, respectively.
Take `O=C1c2cc(-c3ccc(C(F)(F)F)cc3)ccc2OC[C@H]2CN(CC(F)F)CCN12` [II-22, (R)-2-(2,2-difluoroethyl)-8-(4-(trifluoromethyl)phenyl)-3,4,12,12a-tetrahydro-1H-benzo[f]pyrazino[2,1-c][1,4]oxazepin-6(2H)-one]: the inhibition at 1 µM in test [1] came to 15%.
Turning to `O=C1c2cc(-c3ccc(OC(F)(F)F)cc3)ccc2OCCN1Cc1ncccn1` [II-73, 4-(pyrimidin-2-ylmethyl)-7-(4-(trifluoromethoxy)phenyl)-3,4-dihydrobenzo[f][1,4]oxazepin-5(2H)-one], the inhibition at 1 µM in test [1] is 19%.
With `O=C1c2cc(-c3ccc(C(F)(F)F)cc3)ccc2OC[C@H]2CN(CC(F)(F)F)CCN12` [II-83, (R)-2-(2,2,2-trifluoroethyl)-8-(4-(trifluoromethyl)phenyl)-3,4,12,12a-tetrahydro-1H-benzo[f]pyrazino[2,1-c][1,4]oxazepin-6(2H)-one], in test [1], the inhibition at 1 µM was 10%.
Take `O=C1c2cc(-c3ccc(Cl)cc3)ccc2OCCN1Cc1ncccn1` [II-88, 7-(4-chlorophenyl)-4-(pyrimidin-2-ylmethyl)-3,4-dihydrobenzo[f][1,4]oxazepin-5(2H)-one]: the inhibition at 1 µM in test [1] was -1%.
`CC(C)(C)c1ccc(-c2ccc3c(c2)C(=O)N(Cc2ncccn2)CCO3)cc1` [II-98, 7-(4-tert-butylphenyl)-4-(pyrimidin-2-ylmethyl)-3,4-dihydrobenzo[f][1,4]oxazepin-5(2H)-one]: in test [1], the inhibition at 1 µM is -8%.
With `O=C1c2cc(-c3ccc(C(F)(F)F)cc3F)ccc2OCCN1Cc1ncccn1` [II-105, 7-(2-fluoro-4-(trifluoromethyl)phenyl)-4-(pyrimidin-2-ylmethyl)-3,4-dihydrobenzo[f][1,4]oxazepin-5(2H)-one], the inhibition at 1 µM in test [1] stood at 1%; in test [2] (setting [3]), 9%; in test [2] (setting [4]), 11%. In test [2] (measured at 1 μM), the “peak INa TB” value is listed as 9%. Moreover, the “peak INa UDB” value in test [2] (measured at 1 μM) amounted to 11%.
With `O=C1c2cc(-c3ccc(C(F)(F)F)cc3Cl)ccc2OCCN1Cc1ncccn1` [II-110, 7-(2-chloro-4-(trifluoromethyl)phenyl)-4-(pyrimidin-2-ylmethyl)-3,4-dihydrobenzo[f][1,4]oxazepin-5(2H)-one], the inhibition at 1 µM in test [1] was -2%.
Consider `O=C1c2cc(-c3ccc(Cl)cc3F)ccc2OCCN1Cc1ncccn1` [II-117, 7-(4-chloro-2-fluorophenyl)-4-(pyrimidin-2-ylmethyl)-3,4-dihydrobenzo[f][1,4]oxazepin-5(2H)-one], for which the inhibition at 1 µM in test [1] was -18%.
In the case of `O=C1c2cc(-c3ccc(C(F)(F)F)cc3)ccc2OCCN1Cc1cn2ccccc2n1` [II-129, 4-(imidazo[1,2-a]pyridin-2-ylmethyl)-7-(4-(trifluoromethyl)phenyl)-3,4-dihydrobenzo[f][1,4]oxazepin-5(2H)-one], in test [1], the inhibition at 1 µM worked out at 7%.
Turning to `O=C(c1ncccn1)N1CCOc2ccc(-c3ccc(OC(F)(F)F)cc3)cc2C1` [III-1, pyrimidin-2-yl(7-(4-(trifluoromethoxy)phenyl)-2,3-dihydrobenzo[f][1,4]oxazepin-4(5H)-yl)methanone], the inhibition at 1 µM in test [1] is -3%.
Regarding `O=C1c2cc(C#Cc3ccc(OC(F)(F)F)cc3)ccc2OCCN1Cc1ncccn1` [VIII-4, 4-(pyrimidin-2-ylmethyl)-7-((4-(trifluoromethoxy)phenyl)ethynyl)-3,4-dihydrobenzo[f][1,4]oxazepin-5(2H)-one], the inhibition at 1 µM in test [1] came out at 18%; in test [2] (setting [3]) it was 12%; in test [2] (setting [4]), 19%.
On to `O=C1c2cc(C#Cc3ccc(C(F)(F)F)cc3)ccc2OCCN1Cc1ncccn1` [VIII-6, 4-(pyrimidin-2-ylmethyl)-7-((4-(trifluoromethyl)phenyl)ethynyl)-3,4-dihydrobenzo[f][1,4]oxazepin-5(2H)-one], for which, in test [1], the inhibition at 1 µM came to 20%.
